Results: article PMC7450057, “Enhancing intracellular accumulation and target engagement of PROTACs with reversible covalent chemistry” (Nature Communications, 2020)
Values joined by “and” are separate entries in the source; they are usually repeats but may differ in a detail not shown here. Equal entries are not always repeated.

Legend:
[1] = test system: MOLM-14 cells; experiment: AlamarBlue cell viability assay, MOLM-14; details: for Cell viability, MOML-14: Supplementary Figure 7, replicates
Description: The IC50 was calculated using GraphPad Prism software with a four-parameter dose-response curve fit.

[2] = target: T1, BTK (Homo sapiens, UniProt Q06187); experiment: BTK degradation in MOLM-14 cells (western blot); type: cell-based; set-up: endogenous in cells; host or cells: MOLM-14; details: MOLM-14 cells; for Degradation at 200 nM (percentage of BTK degradation): 24 h incubation
[3] = target: T2, NanoLuc-CRBN fusion (Homo sapiens, UniProt Q96SW2); experiment: NanoBRET CRBN in-cell target engagement assay; type: cell-based; details: for NanoBRET(%): Figure 3h, replicates; for IC50: HEK-293 cells, CRBN tracer 0.5 µM, triplicates, read-out: CRBN target engagement IC50,TE
T2 construct: host or cells: HEK 293T/17
Description: The target engagement assay for BTK or CRBN was from Promega (BTK kit, Cat. No. N2500; CRBN kit, Cat. No. CS1810C136) and was performed according to the manufacture’s instruction with some modifications. […] After 2 h incubation, the 3X Nano-Glo® Substrate with NanoLuc® extracellular inhibitor were added to cells and developed for 3 min at room temperature. BRET signals were collected using a BioTek SYNERGY H1 microplate reader equipped with a 450/80-nm BP filter for donor emission and a 610-nm LP filter for acceptor emission. BRET Ratio was calculated with the equation: [(Acceptor sample/Donor sample)–(Acceptor no tracer control/Donor no tracer control)] × 1000. The IC50 of the compound against its BTK or CRBN tracer was calculated using GraphPad Prism software.

[4] = target: T1, BTK; experiment: In vitro BTK kinase assay (PhosphoSens); type: biochemical; set-up: purchased SignalChem B10-10H-10
Description: BTK kinase activity inhibition IC50 was measured by PhosphoSens® Kinase Assay Kit (Assay Quant Technologies Inc., Cat.# CSKS-AQT0101K). […] Active recombinant BTK was purchased from SignalChem (Cat.# B10-10H-10). All the drugs (3 warhead control and 4 PROTACs) were dissolved in DMSO (10 mM). […] To calculate the IC50, subtract the background fluorescence determined with the “no kinase” control for each time point from the total signal to obtain corrected Relative Fluorescence Units (RFU) values. Plot the corrected RFU vs. Time for each inhibitor concentration and determine the initial reaction rates (slope of the linear portion) for each progress curve for each inhibitor concentration. Then plot velocity (RFU corrected/minute) vs [inhibitor] and determine the IC50 using a 4-parameter logistic fit.

T1 sequence (Q06187 whole entry, the tested form may be a part): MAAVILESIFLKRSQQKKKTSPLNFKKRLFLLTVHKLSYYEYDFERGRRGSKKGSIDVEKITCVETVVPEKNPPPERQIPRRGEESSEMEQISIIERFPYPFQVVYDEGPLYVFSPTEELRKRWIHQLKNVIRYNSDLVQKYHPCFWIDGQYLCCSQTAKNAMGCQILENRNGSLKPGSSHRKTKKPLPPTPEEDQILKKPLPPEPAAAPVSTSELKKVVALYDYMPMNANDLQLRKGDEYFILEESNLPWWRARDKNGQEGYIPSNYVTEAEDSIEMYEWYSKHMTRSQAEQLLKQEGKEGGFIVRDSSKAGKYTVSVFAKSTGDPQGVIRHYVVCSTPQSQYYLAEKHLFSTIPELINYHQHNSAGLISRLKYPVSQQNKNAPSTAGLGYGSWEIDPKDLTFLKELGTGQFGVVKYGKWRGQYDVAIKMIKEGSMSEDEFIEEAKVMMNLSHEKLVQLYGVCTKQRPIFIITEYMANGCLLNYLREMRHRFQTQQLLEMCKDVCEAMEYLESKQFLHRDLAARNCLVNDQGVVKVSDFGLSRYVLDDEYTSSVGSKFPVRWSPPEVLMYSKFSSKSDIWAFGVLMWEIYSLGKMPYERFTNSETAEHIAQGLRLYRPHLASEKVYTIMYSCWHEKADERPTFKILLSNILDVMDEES
T2 sequence (Q96SW2 whole entry, the tested form may be a part): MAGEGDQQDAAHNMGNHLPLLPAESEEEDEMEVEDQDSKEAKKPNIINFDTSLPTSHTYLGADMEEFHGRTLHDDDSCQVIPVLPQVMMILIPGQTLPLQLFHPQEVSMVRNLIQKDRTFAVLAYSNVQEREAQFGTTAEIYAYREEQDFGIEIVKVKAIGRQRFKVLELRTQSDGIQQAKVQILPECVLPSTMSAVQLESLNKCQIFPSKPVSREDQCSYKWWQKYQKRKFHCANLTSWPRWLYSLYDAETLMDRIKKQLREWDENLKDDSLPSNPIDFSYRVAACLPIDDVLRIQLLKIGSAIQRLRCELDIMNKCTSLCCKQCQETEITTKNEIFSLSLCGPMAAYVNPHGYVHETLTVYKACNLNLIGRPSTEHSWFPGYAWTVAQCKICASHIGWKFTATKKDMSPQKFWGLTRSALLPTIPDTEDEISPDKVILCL
T2 sequence (Q16531 whole entry partner, the tested form may be a part): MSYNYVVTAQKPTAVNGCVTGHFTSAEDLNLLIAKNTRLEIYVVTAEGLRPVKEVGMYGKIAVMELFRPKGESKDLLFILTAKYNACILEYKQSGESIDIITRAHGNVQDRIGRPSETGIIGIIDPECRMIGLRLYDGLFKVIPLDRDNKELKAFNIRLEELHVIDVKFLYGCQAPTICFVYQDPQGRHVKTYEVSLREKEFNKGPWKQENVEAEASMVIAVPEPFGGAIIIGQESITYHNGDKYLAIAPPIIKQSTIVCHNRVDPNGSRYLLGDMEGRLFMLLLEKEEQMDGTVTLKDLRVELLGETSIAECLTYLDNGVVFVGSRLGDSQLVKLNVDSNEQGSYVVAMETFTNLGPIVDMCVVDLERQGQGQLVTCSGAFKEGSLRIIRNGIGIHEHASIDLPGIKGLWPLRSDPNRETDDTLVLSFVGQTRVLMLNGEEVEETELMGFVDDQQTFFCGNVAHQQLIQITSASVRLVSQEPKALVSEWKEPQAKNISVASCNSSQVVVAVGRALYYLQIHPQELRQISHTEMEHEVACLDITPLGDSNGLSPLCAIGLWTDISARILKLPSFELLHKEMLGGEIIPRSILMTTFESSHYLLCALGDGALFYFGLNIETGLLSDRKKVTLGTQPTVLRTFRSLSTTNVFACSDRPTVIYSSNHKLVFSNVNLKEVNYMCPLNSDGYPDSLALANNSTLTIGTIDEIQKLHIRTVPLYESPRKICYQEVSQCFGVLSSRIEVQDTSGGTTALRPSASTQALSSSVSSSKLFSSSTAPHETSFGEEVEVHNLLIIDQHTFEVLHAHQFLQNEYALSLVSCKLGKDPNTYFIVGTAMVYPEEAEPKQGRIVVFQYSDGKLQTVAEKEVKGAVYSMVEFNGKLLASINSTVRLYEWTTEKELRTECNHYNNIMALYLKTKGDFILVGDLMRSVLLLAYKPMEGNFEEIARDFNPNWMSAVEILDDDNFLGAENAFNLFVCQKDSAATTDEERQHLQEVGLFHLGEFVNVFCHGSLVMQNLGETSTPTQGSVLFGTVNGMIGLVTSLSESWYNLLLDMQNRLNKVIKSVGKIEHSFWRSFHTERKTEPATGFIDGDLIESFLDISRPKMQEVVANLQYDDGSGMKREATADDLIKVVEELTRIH

Degradation at 200 nM (percentage of BTK degradation) [2]	NanoBRET(%) ([3]; drug concentration 1.00E-05 M)	NanoBRET(%) ([3]; drug concentration 1.60E-08 M)	NanoBRET(%) ([3]; drug concentration 2.00E-06 M)	NanoBRET(%) ([3]; drug concentration 3.20E-09 M)	NanoBRET(%) ([3]; drug concentration 4.00E-07 M)	NanoBRET(%) ([3]; drug concentration 8.00E-08 M)	IC50 [3]	SMILES	Cell viability, MOML-14 ([1]; drug concentration 1.00E-05 M)	Cell viability, MOML-14 ([1]; drug concentration 1.60E-08 M)	Cell viability, MOML-14 ([1]; drug concentration 2.00E-06 M)	Cell viability, MOML-14 ([1]; drug concentration 3.20E-09 M)	Cell viability, MOML-14 ([1]; drug concentration 4.00E-07 M)	Cell viability, MOML-14 ([1]; drug concentration 6.40E-10 M)	Cell viability, MOML-14 ([1]; drug concentration 8.00E-08 M)	other results
–	48.4243% and 48.1518% and 48.288%	120.01% and 113.24% and 126.78%	97.5318% and 86.9073% and 76.2828%	100.446% and 106.017%	98.4352% and 83.544% and 119.955%	117.071% and 115.752% and 114.432%	10100 nM	CCCNc1nc(Nc2ccc(C#N)cc2)ncc1C#CCCCNC(=O)[C@H](C)N(C)C(=O)CCCN(C)CCCNC(=O)CCNc1cccc2c1C(=O)N(C1CCC(=O)NC1=O)C2=O (stereo partly shown) [RNC-FLT3]	–	–	–	–	–	–	–	–
6%	–	–	–	–	–	–	–	CN(CCCCNc1cccc2c1C(=O)N(C1CCC(=O)NC1=O)C2=O)C(C)(C)C=C(C#N)C(=O)N1CCCC(n2nc(-c3ccc(Oc4ccccc4)cc3)c3c(N)ncnc32)C1 (stereo not shown) [RC-7]	14.5806 and 18.8166 and 13.8981 and 12.7996 and 18.6335	91.6861 and 127.114 and 140.005 and 143.301 and 145.198	29.6105 and 35.3113 and 28.8948 and 32.5316 and 40.9787	108.289 and 119.541 and 122.853 and 118.675 and 131.225	92.6182 and 112.666 and 109.446 and 93.7916 and 129.078	104.877 and 113.673 and 115.995 and 128.978 and 91.4031	94.8735 and 136.951 and 131.242 and 108.447 and 144.149	–
–	33.2279% and 26.4905% and 27.0048%	92.7988% and 108.391% and 111.382%	38.4699% and 38.0091% and 38.2395%	129.579% and 139.696% and 92.9737%	76.4349% and 76.1877% and 65.5306%	100.627% and 103.984% and 84.3671%	1500 nM	CCCNc1nc(Nc2ccc(C#N)cc2)ncc1C#CCCCNC(=O)[C@H](C)N(C)C(=O)/C=C/CN(C)CCCNC(=O)CCNc1cccc2c1C(=O)N(C1CCC(=O)NC1=O)C2=O (stereo partly shown) [IRC-FLT3]	–	–	–	–	–	–	–	–
15%	–	–	–	–	–	–	–	CN(CCCNc1cccc2c1C(=O)N(C1CCC(=O)NC1=O)C2=O)C(C)(C)C=C(C#N)C(=O)N1CCCC(n2nc(-c3ccc(Oc4ccccc4)cc3)c3c(N)ncnc32)C1 (stereo not shown) [RC-8]	17.5563 and 16.7069 and 17.8914 and 20.4239 and 19.1771	123.954 and 125.216 and 128.45 and 118.008 and 115.826	51.2117 and 59.1288 and 59.5652 and 52.2481 and 61.4899	109.039 and 133.593 and 120.962 and 127.936 and 128.38	97.748 and 111.696 and 131.871 and 99.439 and 92.5349	132.113 and 115.156 and 99.1818 and 117.969 and 130.757	116.239 and 126.011 and 117.112 and 106.966 and 122.419	–
56%	–	–	–	–	–	–	–	CN(CCOCCOCCOCCNC(=O)CNc1cccc2c1C(=O)N(C1CCC(=O)NC1=O)C2=O)C(C)(C)C=C(C#N)C(=O)N1CCCC(n2nc(-c3ccc(Oc4ccccc4)cc3)c3c(N)ncnc32)C1 (stereo not shown) [RC-5]	1.391 and 1.373 and 1.5492 and 0.5927 and 1.848	74.2327 and 92.4124 and 92.4946 and 100.939 and 90.3468	10.6332 and 11.0087 and 14.6588 and 13.2797 and 19.9049	91.6026 and 96.0448 and 87.3775 and 99.3838 and 93.8853	64.738 and 68.3352 and 96.2033 and 70.0311 and 76.4802	101.496 and 98.8968 and 89.2553 and 98.5858 and 94.7773	91.7317 and 86.3095 and 87.3482 and 74.3794 and 93.7562	–

Second part, the compound before the results:

SMILES	Degradation at 200 nM (percentage of BTK degradation) [2]	NanoBRET(%) ([3]; drug concentration 1.00E-05 M)	NanoBRET(%) ([3]; drug concentration 1.60E-08 M)	NanoBRET(%) ([3]; drug concentration 2.00E-06 M)	NanoBRET(%) ([3]; drug concentration 3.20E-09 M)	NanoBRET(%) ([3]; drug concentration 4.00E-07 M)	NanoBRET(%) ([3]; drug concentration 8.00E-08 M)	IC50 [3]	Cell viability, MOML-14 ([1]; drug concentration 1.00E-05 M)	Cell viability, MOML-14 ([1]; drug concentration 1.60E-08 M)	Cell viability, MOML-14 ([1]; drug concentration 2.00E-06 M)	Cell viability, MOML-14 ([1]; drug concentration 3.20E-09 M)	Cell viability, MOML-14 ([1]; drug concentration 4.00E-07 M)	Cell viability, MOML-14 ([1]; drug concentration 6.40E-10 M)	Cell viability, MOML-14 ([1]; drug concentration 8.00E-08 M)	other results
CN(CCCNC(=O)COc1cccc2c1C(=O)N(C1CCC(=O)NC1=O)C2=O)C(C)(C)C=C(C#N)C(=O)N1CCC[C@@H](n2nc(-c3ccc(Oc4ccccc4)cc3)c3c(N)ncnc32)C1 (stereo partly shown) [RC-9]	30%	–	–	–	–	–	–	–	-0.2322 and -0.06633 and -0.1327 and -0.8823 and -0.4179	85.6517 and 91.2637 and 79.403 and 91.5091 and 93.4859	9.041 and 7.098 and 11.4959 and 8.756 and 8.279	93.4859 and 94.8192 and 76.9154 and 100.657 and 77.1542	42.6932 and 44.9353 and 60.7695 and 44.0464 and 46.4279	113.612 and 82.5937 and 85.9834 and 109.612 and 104.358	79.6219 and 80.8756 and 76.0199 and 82.7728 and 91.7612	–
CCCNc1nc(Nc2ccc(C#N)cc2)ncc1C#CCCCNC(=O)[C@H](C)N(C)C(=O)/C(C#N)=C/C(C)(C)N(C)CCCNC(=O)CCNc1cccc2c1C(=O)N(C1CCC(=O)NC1=O)C2=O (stereo partly shown) [RC-FLT3]	–	35.9991% and 14.2807% and 25.1399%	91.6727% and 89.8569% and 90.7648%	22.2416% and 18.9083% and 40.0723%	100.385% and 96.7751% and 101.754%	38.0473% and 34.6413% and 45.5817%	64.8551% and 66.5991% and 71.8605%	300 nM	–	–	–	–	–	–	–	–
CN(CCOCCNC(=O)CNc1ccc2c(c1)C(=O)N(C1CCC(=O)NC1=O)C2=O)C(C)(C)C=C(C#N)C(=O)N1CCC[C@@H](n2nc(-c3ccc(Oc4ccccc4)cc3)c3c(N)ncnc32)C1 (stereo partly shown) [RC-10]	–	–	–	–	–	–	–	–	6.648 and 2.814 and 5.855 and 1.001 and 2.266	84.9481 and 73.56 and 76.0529 and 61.3598 and 63.4939	15.1841 and 8.971 and 14.3343 and 7.989 and 11.1237	88.1209 and 77.847 and 69.5373 and 71.6336 and 68.102	52.6534 and 38.4514 and 40.831 and 37.0727 and 36.6572	87.0746 and 98.5269 and 68.2342 and 85.7413 and 74.9197	70.5949 and 66.9688 and 60.3777 and 66.9311 and 50.1039	BTK degradation (in words) ([2]; indicated doses, 24 h): cannot induce any BTK degradation
CN(CCCCNC(=O)CNc1cccc2c1C(=O)N(C1CCC(=O)NC1=O)C2=O)C(C)(C)C=C(C#N)C(=O)N1CCC[C@@H](n2nc(-c3ccc(Oc4ccccc4)cc3)c3c(N)ncnc32)C1 (stereo partly shown) [RC-2]	49%	–	–	–	–	–	–	–	1.939 (2×) and 0.9797 and 1.263 and 1.918	109.825 and 84.2418 and 85.8907 and 118.518 and 93.8319	9.2521 and 10.1835 and 11.1012 and 14.0541 and 10.0041	91.1619 and 67.352 and 96.5641 and 78.9913 and 73.6029	67.2416 and 67.0208 and 59.4522 and 60.425 and 58.2103	98.0682 and 96.9022 and 102.332 and 130.626 and 104.719	92.8384 and 69.3183 and 103.532 and 88.8644 and 89.4508	–
CCC(=O)N1CCCC(n2nc(-c3ccc(Oc4ccccc4)cc3)c3c(N)ncnc32)C1 (stereo not shown) [RNC-Ctrl]	–	–	–	–	–	–	–	–	9.88 and 4.549 and 8.014 and 2.825 and 3.518	95.1882 and 83.3008 and 72.3018 and 73.7944 and 64.519	23.8281 and 18.1065 and 24.6633 and 17.9289 and 14.3751	99.7903 and 102.278 and 76.2998 and 63.1686 and 63.4529	54.0886 and 58.7263 and 56.6474 and 49.4687 and 44.0492	93.8377 and 115.463 and 71.822 and 77.5792 and 66.4558	94.9216 and 79.4804 and 66.9 and 56.8073 and 62.3334	IC50 ([1]; Homo sapiens, MOLM-14, 72 h, read-out: Cell viability IC50): 420 nM; IC50 [4]: 13.6 nM; activity at 12.8 pM ([4]; Supplementary Figure 5, drug concentration 12.8 pM, replicates, read-out: Inhibition(%)): 94.1%; activity at 64 pM ([4]; Supplementary Figure 5, drug concentration 64 pM, replicates, read-out: Inhibition(%)): 94%; activity at 0.00032 µM ([4]; Supplementary Figure 5, drug concentration 320 pM, replicates, read-out: Inhibition(%)): 92.7%; activity at 0.0016 µM ([4]; Supplementary Figure 5, drug concentration 1600 pM, replicates, read-out: Inhibition(%)): 83.1%; activity at 0.008 µM ([4]; Supplementary Figure 5, drug concentration 8000 pM, replicates, read-out: Inhibition(%)): 62.4%; activity at 0.04 µM ([4]; Supplementary Figure 5, drug concentration 40000 pM, replicates, read-out: Inhibition(%)): 29.6%; activity at 0.2 µM ([4]; Supplementary Figure 5, drug concentration 200000 pM, replicates, read-out: Inhibition(%)): 9.18%; activity at 1 µM ([4]; Supplementary Figure 5, drug concentration 1000000 pM, replicates, read-out: Inhibition(%)): 3.99%; reduction of BTK inhibition activity compared with IRC-Ctrl ([4]; ratio of IC50 values): 45 folds; activity at 2.56 pM ([4]; read-out: Inhibition(%), Supplementary Figure 5, drug concentration 2.56 pM, replicates): 110%
